pIC50: −log10 of the molar value.
biological target: T1, human Nav1.8 (hNav1.8) ion channel (Homo sapiens, UniProt Q9Y5Y9); test: Inhibition of human Nav1.8 stably expressed in SH-SY-5Y cells (membrane potential dye fluorescence assay); assay type: cell-based; details: Table 2 (compound numbers of the list in the description); SH-SY-5Y hNav1.8 cells, inhibition of membrane depolarisation, FLIPR membrane potential dye, 250 nM TTX, test concentration range 100 μM-0.05 μM; read-out: IC50
T1 construct: expressed in transfected cells
Protocol: Inhibition of Human Nav1.8 Stably Expressed in SH-SY-5Y Cells
A SH-SY-5Y neuroblastoma cell line stably expressing the human […] (hNav1.8) ion channel was constructed. This cell line has been used to develop a medium to high throughput assay for determining the ability of test compounds to inhibit membrane depolarisation mediated via the hNav1.8 channel.
SH-SY-5Y hNav1.8 are grown in adherent monolayer culture using 50:50 Ham's F-12/EMEM tissue culture medium supplemented with 15% (v/v) foetal bovine serum; 2 mM L-glutamine, 1% NEAA and 600 μg·ml^−1 Geneticin sulphate. Cells are removed from the tissue culture flask using trypsin/EDTA and re-plated into black walled, clear bottom 96-well assay plates at 50,000 cells·well^−1 24 hours prior to assay.
On the day of assay the cell assay plates are washed to remove cell culture medium using a sodium free assay buffer (145 mM tetramethyl ammonium chloride; 2 mM calcium chloride; 0.8 mM magnesium chloride hexahydrate; 10 mM HEPES; 10 mM glucose; 5 mM potassium chloride, pH 7.4). Fluorescent membrane potential dye solution (FLIPR™ membrane potential dye, Molecular Devices Corporation), containing 10 μM of a pyrethroid to prevent channel inactivation and 250 nM tetrodotoxin (TTX) to reduce interference from TTX-sensitive sodium channels present in the cell line. Test compound, initially dissolved in dimethyl sulfoxide but further diluted in sodium free buffer, is added to achieve the final test concentration range of 100 μM-0.05 μM.
Cell plates are incubated for 30 minutes at room temperature to allow equilibration of dye and test compound. Plates are then transferred to a fluorescence plate reader for fluorescence measurement using an excitation wavelength of 530 nm whilst measuring fluorescence emission at 565 nm. Baseline fluorescence levels are first determined before the addition of a sodium containing buffer (220 mM sodium chloride; 2 mM calcium chloride; 0.8 mM magnesium chloride hexahydrate; […]; 10 mM glucose; 5 mM potassium chloride. pH 7.4) to cause membrane depolarisation in those cells where channel block has not been effected (final sodium concentration=72.5 mM). Membrane depolarisation is registered by an increase in fluorescence emission at 565 nm.
The change in fluorescence seen in each test well upon the addition of sodium containing buffer is calculated relative to the baseline fluorescence for that well. This figure is then used for calculating the IC50 for each test compound.

T1 sequence (Q9Y5Y9 whole entry): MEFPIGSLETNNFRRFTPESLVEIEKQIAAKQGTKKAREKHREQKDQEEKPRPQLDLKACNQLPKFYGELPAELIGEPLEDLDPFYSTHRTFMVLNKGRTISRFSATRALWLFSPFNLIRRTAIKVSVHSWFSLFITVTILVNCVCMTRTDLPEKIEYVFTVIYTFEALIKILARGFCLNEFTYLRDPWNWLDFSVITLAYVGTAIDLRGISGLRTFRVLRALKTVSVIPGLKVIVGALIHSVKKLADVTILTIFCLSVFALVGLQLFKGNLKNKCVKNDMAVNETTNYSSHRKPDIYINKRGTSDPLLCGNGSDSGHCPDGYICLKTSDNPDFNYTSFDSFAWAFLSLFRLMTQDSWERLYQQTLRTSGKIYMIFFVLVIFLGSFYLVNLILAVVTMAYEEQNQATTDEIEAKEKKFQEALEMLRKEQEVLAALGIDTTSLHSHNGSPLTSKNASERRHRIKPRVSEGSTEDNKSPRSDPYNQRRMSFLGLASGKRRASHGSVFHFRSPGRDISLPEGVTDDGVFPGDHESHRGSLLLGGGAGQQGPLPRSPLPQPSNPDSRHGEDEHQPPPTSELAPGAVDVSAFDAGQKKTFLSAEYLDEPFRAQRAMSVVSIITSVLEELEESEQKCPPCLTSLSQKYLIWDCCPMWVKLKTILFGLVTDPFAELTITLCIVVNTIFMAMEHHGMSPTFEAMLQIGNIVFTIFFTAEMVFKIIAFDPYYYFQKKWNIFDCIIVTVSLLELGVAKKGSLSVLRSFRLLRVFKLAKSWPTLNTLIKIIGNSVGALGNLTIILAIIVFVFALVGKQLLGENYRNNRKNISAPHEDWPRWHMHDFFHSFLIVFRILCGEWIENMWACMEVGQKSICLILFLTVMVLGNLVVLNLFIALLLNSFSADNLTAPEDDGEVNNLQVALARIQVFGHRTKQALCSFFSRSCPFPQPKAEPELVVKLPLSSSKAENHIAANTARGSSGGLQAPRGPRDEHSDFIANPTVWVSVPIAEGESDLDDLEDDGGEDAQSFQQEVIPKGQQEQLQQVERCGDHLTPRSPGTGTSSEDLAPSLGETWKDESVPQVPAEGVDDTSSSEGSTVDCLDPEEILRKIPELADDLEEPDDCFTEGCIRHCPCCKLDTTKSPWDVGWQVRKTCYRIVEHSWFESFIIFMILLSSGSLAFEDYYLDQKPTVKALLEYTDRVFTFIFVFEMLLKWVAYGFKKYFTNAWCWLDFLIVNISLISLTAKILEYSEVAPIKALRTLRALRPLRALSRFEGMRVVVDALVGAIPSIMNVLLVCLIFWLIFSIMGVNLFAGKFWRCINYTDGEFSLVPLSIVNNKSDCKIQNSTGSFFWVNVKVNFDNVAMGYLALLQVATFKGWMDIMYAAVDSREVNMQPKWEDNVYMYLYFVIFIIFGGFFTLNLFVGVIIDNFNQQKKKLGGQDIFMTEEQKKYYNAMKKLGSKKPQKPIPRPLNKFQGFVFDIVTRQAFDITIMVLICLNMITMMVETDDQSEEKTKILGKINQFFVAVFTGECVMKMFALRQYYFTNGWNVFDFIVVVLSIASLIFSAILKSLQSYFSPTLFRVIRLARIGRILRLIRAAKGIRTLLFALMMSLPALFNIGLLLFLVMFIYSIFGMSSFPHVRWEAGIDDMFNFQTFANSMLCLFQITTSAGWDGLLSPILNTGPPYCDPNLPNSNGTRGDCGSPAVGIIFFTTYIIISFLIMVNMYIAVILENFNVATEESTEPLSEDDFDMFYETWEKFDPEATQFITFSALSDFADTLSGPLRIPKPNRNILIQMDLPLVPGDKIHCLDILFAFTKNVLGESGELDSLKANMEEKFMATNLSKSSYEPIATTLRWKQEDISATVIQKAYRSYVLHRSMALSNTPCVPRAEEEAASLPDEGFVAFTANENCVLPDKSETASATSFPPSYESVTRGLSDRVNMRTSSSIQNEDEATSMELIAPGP

Compared with COc1cc2c(cc1OC)CN(CC(=O)N1c3ccccc3Sc3ccc(Cl)cc31)CC2 [Compound 153, 1-(2-Chloro-phenothiazin-10-yl)-2-(6,7-dimethoxy-3,4-dihydro-1H-isoquinolin-2-yl)-ethanone], COc1cc2c(cc1OC)CN(CC(=O)N1c3ccccc3Sc3ccc(SC)cc31)CC2 [Compound 156, 2-(6,7-Dimethoxy-3,4-dihydro-1H-isoquinolin-2-yl)-1-(2-methylsulfanyl-phenothiazin-10-yl)-ethanone] is 0.36 log units higher in pIC50: 5.27 for the first, 5.63 for the second.

Going from COc1cc2c(cc1OC)CN(CC(=O)N1c3ccccc3Sc3ccc(C(F)(F)F)cc31)CC2 [Compound 154, 2-(6,7-Dimethoxy-3,4-dihydro-1H-isoquinolin-2-yl)-1-(2-trifluoromethyl-phenothiazin-10-yl)-ethanone] to COc1cc2c(cc1OC)CN(CC(=O)N1c3ccccc3Sc3ccc(C(C)=O)cc31)CC2 [Compound 155, 1-(2-Acetyl-phenothiazin-10-yl)-2-(6,7-dimethoxy-3,4-dihydro-1H-isoquinolin-2-yl)-ethanone], the pIC50 rises from 4.91 to 5.20 (0.29 log units).

First: COc1cc2c(cc1OC)CN(CC(=O)N1c3ccccc3[S+]([O-])c3ccccc31)CC2 [Compound 157, 2-(6,7-Dimethoxy-3,4-dihydro-1H-isoquinolin-2-yl)-1-(5-oxo-5H-5lambda*4*-phenothiazin-10-yl)-ethanone]
Second: COc1cc2c(cc1OC)CN(CCNC(=O)N1c3ccccc3Oc3ccccc31)CC2 [Compound 165, Phenoxazine-10-carboxylic acid [2-(6,7-dimethoxy-3,4-dihydro-1H-isoquinolin-2-yl)-ethyl]-amide]
The pIC50 of the first is 1.47 log units lower: 4.52 for the first, 5.99 for the second.

Going from CSc1ccc2c(c1)N(C(=O)CN1CCc3cccc(O)c3C1)c1ccccc1S2 [Compound 158, 2-(8-Hydroxy-3,4-dihydro-1H-isoquinolin-2-yl)-1-(2-methylsulfanyl-phenothiazin-10-yl)-ethanone] to COc1cccc2c1CN(CC(=O)N1c3ccccc3Sc3ccc(SC)cc31)CC2 [Compound 159, 2-(8-Methoxy-3,4-dihydro-1H-isoquinolin-2-yl)-1-(2-methylsulfanyl-phenothiazin-10-yl)-ethanone], the pIC50 falls from 5.34 to 4.68 (0.66 log units). The first is the more potent here.

O=C(NCCN1CCc2cccc(O)c2C1)N1c2ccccc2Sc2ccccc21 [Compound 160, Phenothiazine-10-carboxylic acid [2-(8-hydroxy-3,4-dihydro-1H-isoquinolin-2-yl)-ethyl]-amide] and COc1cccc2c1CN(CCNC(=O)N1c3ccccc3Sc3ccccc31)CC2 [Compound 162, Phenothiazine-10-carboxylic acid [2-(8-methoxy-3,4-dihydro-1H-isoquinolin-2-yl)-ethyl]-amide] are within 0.2 log units of each other in pIC50: 6.02 for the first, 6.01 for the second.

Compared with COc1cc2c(cc1OC)CN(CCNC(=O)N1c3ccccc3Sc3ccccc31)CC2 [Compound 161, Phenothiazine-10-carboxylic acid [2-(6,7-dimethoxy-3,4-dihydro-1H-isoquinolin-2-yl)-ethyl]-amide], COc1cccc2c1CN(CCNC(=O)N1c3ccccc3Oc3ccccc31)CC2 [Compound 164, Phenoxazine-10-carboxylic acid [2-(8-methoxy-3,4-dihydro-1H-isoquinolin-2-yl)-ethyl]-amide] is 0.20 log units higher in pIC50: 5.95 for the first, 6.15 for the second.

First: O=C(NCCN1CCc2cccc(O)c2C1)N1c2ccccc2Oc2ccccc21 [Compound 163, Phenoxazine-10-carboxylic acid [2-(8-hydroxy-3,4-dihydro-1H-isoquinolin-2-yl)-ethyl]-amide]
Second: O=C(CN1CCc2cccc(O)c2C1)NN(c1ccccc1)c1ccccc1 [Compound 167, (8-Hydroxy-3,4-dihydro-1H-isoquinolin-2-yl)-acetic acid N′,N′-diphenyl-hydrazide]
The pIC50 of the first is 0.76 log units higher: 6.11 for the first, 5.35 for the second. The first is the more potent here.

Work on COc1cccc2c1CN(CCC(=O)NCCC(c1ccc(F)cc1)c1ccc(F)cc1)CC2 [Compound 166, N-[3,3-Bis-(4-fluoro-phenyl)-propyl]-3-(8-methoxy-3,4-dihydro-1H-isoquinolin-2-yl)-propionamide] yielded a pIC50 of 6.46.

Reference: patent US20070043024A1, “Azacyclic compounds as inhibitors of sensory neurone specific channels” (priority 2003, published 2007)
